Data: ChEMBL document CHEMBL5131492, “Harringtonine Ester Derivatives with Enhanced Antiproliferative Activities against HL-60 and HeLa Cells” (J Nat Prod, 2022)

Columns and labels:
HL-60 = assay: Antiproliferative activity against human HL-60 cells assessed as inhibition of cell growth measured after 68 hrs by MTS assay; assay type: functional, cell-based; conditions: HL-60, 68 h
HeLa = assay: Antiproliferative activity against human HeLa cells assessed as inhibition of cell growth measured after 68 hrs by MTS assay; assay type: functional, cell-based

Row | SMILES | IC50 (HL-60) [µM] | IC50 (HeLa) [µM]
1 | COC1=C[C@]23CCCN2CCc2cc4c(cc2[C@@H]3[C@@H]1OC(=O)[C@@](O)(CCC(C)(C)O)CC(=O)O)OCO4 | > 100 | > 100
2 | COC1=C[C@]23CCCN2CCc2cc4c(cc2[C@@H]3[C@@H]1OC(=O)[C@@](O)(CCC(C)(C)O)CC(=O)OCC(C)C)OCO4 | 0.119 | 23.8
3 | COC1=C[C@]23CCCN2CCc2cc4c(cc2[C@@H]3[C@@H]1OC(=O)[C@@](O)(CCC(C)(C)O)CC(=O)OC(C)C)OCO4 | 0.583 | 60.6
4 | CCOC(=O)C[C@](O)(CCC(C)(C)O)C(=O)O[C@@H]1C(OC)=C[C@]23CCCN2CCc2cc4c(cc2[C@H]13)OCO4 | 0.186 | 24.2
5 | COC1=C[C@]23CCCN2CCc2cc4c(cc2[C@@H]3[C@@H]1OC(=O)[C@@](O)(CCC(C)(C)O)CC(=O)OC(C)(C)C)OCO4 | 6.2 | > 100
6 | CCC(C)OC(=O)C[C@](O)(CCC(C)(C)O)C(=O)O[C@@H]1C(OC)=C[C@]23CCCN2CCc2cc4c(cc2[C@H]13)OCO4 (mixture of isomers) | 0.499 | 97.9
7 | COC(=O)C[C@](O)(CCC(C)(C)O)C(=O)O[C@@H]1C(OC)=C[C@]23CCCN2CCc2cc4c(cc2[C@H]13)OCO4 [HARRINGTONINE] | 0.0505 | 4
8 | COC(=O)C[C@](O)(CCCC(C)(C)O)C(=O)O[C@@H]1C(OC)=C[C@]23CCCN2CCc2cc4c(cc2[C@H]13)OCO4 [OMACETAXINE MEPESUCCINATE] | – | 1.7

Next, values leading:

Row | IC50 (HL-60) [µM] | IC50 (HeLa) [µM] | SMILES
9 | 0.0227 | 6 | CCCCCOC(=O)C[C@](O)(CCC(C)(C)O)C(=O)O[C@@H]1C(OC)=C[C@]23CCCN2CCc2cc4c(cc2[C@H]13)OCO4
10 | 0.0118 | 2 | CCCCCCCCOC(=O)C[C@](O)(CCC(C)(C)O)C(=O)O[C@@H]1C(OC)=C[C@]23CCCN2CCc2cc4c(cc2[C@H]13)OCO4
11 | 0.0424 | 10.8 | CCCCOC(=O)C[C@](O)(CCC(C)(C)O)C(=O)O[C@@H]1C(OC)=C[C@]23CCCN2CCc2cc4c(cc2[C@H]13)OCO4
12 | 0.0094 | 0.4 | CCCCCCCOC(=O)C[C@](O)(CCC(C)(C)O)C(=O)O[C@@H]1C(OC)=C[C@]23CCCN2CCc2cc4c(cc2[C@H]13)OCO4
13 | 0.0096 | 1.9 | CCCCCCOC(=O)C[C@](O)(CCC(C)(C)O)C(=O)O[C@@H]1C(OC)=C[C@]23CCCN2CCc2cc4c(cc2[C@H]13)OCO4
14 | 0.104 | 15.8 | CCCOC(=O)C[C@](O)(CCC(C)(C)O)C(=O)O[C@@H]1C(OC)=C[C@]23CCCN2CCc2cc4c(cc2[C@H]13)OCO4
